According to the NIST ThermoML archive (doi:10.1016/j.fluid.2008.03.004):
Numbers after ± are expanded uncertainties.

Assay: xn = mol fraction of the nth substance listed
Conditions: 101 kPa, Liquid; for speed of sound: Sing-around technique in a fixed-path interferometer

Cc1ccccc1C [1,2-dimethylbenzene] + COC(C)(C)C
Conditions | mass density, 315.65 K [kg/m3] | mass density, 318.15 K [kg/m3] | mass density, 320.65 K [kg/m3] | mass density, 323.15 K [kg/m3] | speed of sound, 315.65 K [m/s] | speed of sound, 318.15 K [m/s] | speed of sound, 320.65 K [m/s] | speed of sound, 323.15 K [m/s]
x2 = 0 | 860.179 ± 0.38 | 858.054 ± 0.38 | 855.927 ± 0.39 | 853.803 ± 0.39 | – | 1260.6 ± 2.2 | 1250.7 ± 2.2 | 1240.9 ± 2.2
x2 = 0.052 | 853.286 ± 0.41 | 851.136 ± 0.41 | 848.981 ± 0.42 | 846.833 ± 0.42 | – | 1253.5 ± 2.2 | 1243.6 ± 2.2 | 1233.9 ± 2.2
x2 = 0.101 | 847.168 ± 0.42 | 845 ± 0.42 | 842.834 ± 0.43 | 840.678 ± 0.43 | – | 1239 ± 2.2 | 1229.1 ± 2.2 | 1219.5 ± 2.2
x2 = 0.203 | 833.542 ± 0.44 | 831.325 ± 0.45 | 829.108 ± 0.45 | 826.892 ± 0.45 | – | 1208.4 ± 2.2 | 1198.3 ± 2.2 | 1188.3 ± 2.2
x2 = 0.303 | 819.996 ± 0.46 | 817.731 ± 0.46 | 815.461 ± 0.47 | 813.194 ± 0.47 | – | 1177.1 ± 2.2 | 1166.9 ± 2.2 | 1156.9 ± 2.2
x2 = 0.401 | 806.651 ± 0.48 | 804.337 ± 0.48 | 802.016 ± 0.49 | 799.699 ± 0.49 | – | 1146.7 ± 2.2 | 1136.4 ± 2.2 | 1126.2 ± 2.2
x2 = 0.499 | 792.544 ± 0.5 | 790.173 ± 0.51 | 787.797 ± 0.51 | 785.421 ± 0.51 | 1125.3 ± 2.2 | 1114.9 ± 2.2 | 1104.4 ± 2.2 | 1094.1 ± 2.2
x2 = 0.604 | 777.236 ± 0.53 | 774.802 ± 0.53 | 772.358 ± 0.53 | 769.917 ± 0.54 | 1092 ± 2.2 | 1081.2 ± 2.2 | 1070.5 ± 2.2 | 1059.9 ± 2.2
x2 = 0.707 | 761.858 ± 0.55 | 759.355 ± 0.55 | 756.834 ± 0.56 | 754.356 ± 0.56 | 1056.8 ± 2.2 | 1045.8 ± 2.2 | 1034.8 ± 2.2 | 1024.2 ± 2.2
x2 = 0.8 | 747.693 ± 0.57 | 745.123 ± 0.57 | 742.544 ± 0.58 | 739.964 ± 0.58 | 1024.9 ± 2.2 | 1014 ± 2.2 | 1003.2 ± 2.2 | 992.41 ± 2.2
x2 = 0.9 | 731.912 ± 0.59 | 729.271 ± 0.6 | 726.621 ± 0.6 | 723.991 ± 0.61 | 992.02 ± 2.2 | 980.41 ± 2.2 | 968.31 ± 2.2 | 957.28 ± 2.2
x2 = 0.95 | 723.834 ± 0.61 | 721.145 ± 0.61 | 718.446 ± 0.61 | 715.742 ± 0.62 | 973.42 ± 2.2 | 962.22 ± 2.2 | 951.04 ± 2.2 | 940.07 ± 2.2
